According to US20110160250A1, “CRYSTALLINE FORMS OF A FACTOR XA INHIBITOR” (Millennium Pharmaceuticals, Inc., priority 2009, published 2011):
Read-outs that look alike come from different tables or passages of the source.

Assays:
[1] = Pharmacokinetics of Compound I in dog after intravenous and oral administration (plasma LC/MS/MS, noncompartmental analysis); type: in vivo, male beagle dogs; details: mean ± SD; for Vd: iv
Protocol: (§1) The following experiments were conducted using samples of Compound I prepared by a method disclosed in U.S. Pat. No. 7,763,608, which is incorporated by reference in its entirety.
(§2) For the dog and monkey study, Compound I was also used. An IV and PO dose of Compound I (1.0 and 5.0 mg/kg, respectively) was prepared. The IV dose was formulated similarly to that used in the rat study (50% PEG300 in water). The PO dose was suspended in 0.5% methylcellulose at a concentration of 1.0 mg/mL with a final pH of approximately 3.50.
(§3) A total of six male Sprague-Dawley rats (n=3/dosing group) from Charles River Laboratories (Hollister, Calif.), three male beagle dogs from Marshall BioResources (North Rose, N.Y.) and three male rhesus monkeys were utilized. All surgical procedures in rat (femoral and jugular vein catheterizations) were performed 8 days prior to utilization in the study and rats were acclimated in-house 5 days prior to utilization. Dogs were acclimated in-house at least seven days prior to utilization and were returned to the colony at the completion of the study. Monkey studies were conducted by an off-site contract laboratory.
(§4) All animals were fasted from the afternoon prior to study initiation to two hours post-dose (approximately 18 hours). Water was provided ad libitum. All animal rooms were on a 12 hour light-dark cycles (6 A.M. to 6 P.M.). On the morning of experimentation, animals were weighed. Rat femoral and jugular (IV only) vein blood lines were exteriorized and attached to access ports. Dogs were weighed and shaved at blood sampling and IV dosing sites (along both cephalic and saphenous veins).
(§5) All animals were dosed based on individual weights with a PO gavage volume of 5.0 mL/kg and an IV bolus dose volume of 1.0 mL/kg. Blood samples were obtained on 3.8% TSC (1:10 dilution) over a 24, 56, and 96 hour period post-dosing for the rat, dog, and monkey, respectively. Blood samples were centrifuged for platelet poor plasma, and resulting plasma was stored at −20° C. until sample analysis. Rat urine samples were collected on 200 μL of 2% boric acid from animals in the IV group at 0 (overnight), 10, and 24 hours post-dose. At collection times, urine volume and water consumption was recorded. Urine samples were stored at −20° C. until sample analysis.
(§6) Plasma and urine samples were analyzed for Compound I concentration using a liquid chromatography tandem mass spectrometry (LC/MS/MS). In brief, plasma and urine samples were processed in a 96-well Captiva™ filter plate (0.2 μm, Varian, Inc., Palo Alto, Calif.). Aliquots of plasma samples were precipitated with acetonitrile containing 500 ng/mL of N-(2-(5-chloropyridin-2-ylcarbaomoyl)-4-methoxyphenyl)-4-(N,N-dimethylcarbamimidoyl)-2-fluorobenzamide, an internal standard. Aliquots of urine samples were diluted with plasma before mixing with acetonitrile containing internal standard. The mixture was vortexed and refrigerated at 4° C. for 30 minutes to allow complete protein precipitation. The mixture was filtered into a 96-well collection plate. The filtrate was injected onto a Sciex API3000 LC/MS/MS equipped with a turbo-ion spray source. Compound I and N-(2-(5-chloropyridin-2-ylcarbaomoyl)-4-methoxyphenyl)-4-(N,N-dimethylcarbamimidoyl)-2-fluorobenzamide were separated on a Thermo Hypersil-Keystone Betasil C18 column (4.6×100 mm, 5 μm; Fisher Scientific, Houston, Tex.). A mobile phase gradient mixture of 90% mobile phase A (0.5% formic acid in water) and 10% mobile phase B (0.5% formic acid in 90% acetonitrile) to 40% mobile phase B (programmed over 2.8 minutes). The peak areas of the m/z 411→250 product ion (Compound I) were measured against those of the m/z 470→342 product ion (N-(2-(5-chloropyridin-2-ylcarbaomoyl)-4-methoxyphenyl)-4-(N,N-dimethylcarbamimidoyl)-2-fluorobenzamide) in positive ion mode. The analytical range was 0.500 to 10,000 ng/mL.
(§7) Sample Compound I concentrations below the lower limit of quantitation (LLQ) were reported as <0.500 ng/mL. […]

[2] = Pharmacokinetics of Compound I in monkey after intravenous and oral administration (plasma LC/MS/MS, noncompartmental analysis); type: in vivo, male rhesus monkeys; details: mean ± SD; for Vd: iv
Protocol: as §1, §2, §3, §4, §5, §6, §7

[3] = Pharmacokinetics of Compound I in rat after intravenous and oral administration (plasma and urine LC/MS/MS, noncompartmental analysis); type: in vivo, male Sprague-Dawley rats; details: mean ± SD; for half-life: read-out: T1/2 (terminal half-life) (converted); for Vd: iv
Protocol: as §1
Compound I was used in the rat investigation. An intravenous (IV) and oral (PO) dose of Compound I (1.0 and 10 mg/kg, respectively) was prepared. The IV dose was solubilized in 50% PEG300 to yield a final concentration of 1.0 mg/mL with a final pH of 5.13. The PO dose was suspended in 0.5% methylcellulose at a concentration of 2.0 mg/mL with a final pH of 2.70.
as §3, §4, §5, §6, §7

[4] = male, beagle, plasma, intravenous, 1 mg/kg
[5] = male, beagle, plasma, oral, 5 mg/kg
[6] = male, rhesus, rhesus monkey, plasma, intravenous, 1 mg/kg
[7] = male, rhesus, rhesus monkey, plasma, oral, 5 mg/kg
[8] = male, Sprague-Dawley, plasma, intravenous, 1 mg/kg
[9] = male, Sprague-Dawley, plasma, oral, 10 mg/kg

O=C(NCc1cn(-c2ccc(-n3ccccc3=O)cc2)cn1)c1ccc(Cl)s1 [Compound I, 5-chloro-N-((1-(4-(2-oxopyridin-1(2H)-yl)phenyl)-1H-imidazol-4-yl)methyl)thiophene-2-carboxamide]
AUC [1, 4]: 1620 ± 360 ng·h/mL
AUC(0-inf) [1, 4]: 1620 ± 363 ng·h/mL
clearance ([1]; male, beagle, plasma, intravenous, 1 mg/kg, read-out: CL (systemic clearance)): 10.7 ± 2.69 mL/min/kg
Vd ([1]; male, beagle, plasma, 1 mg/kg, intravenous, 1 mg/kg, read-out: Vss (volume of distribution at steady-state)): 0.843 ± 0.288 L/kg
Vd ([1]; male, beagle, plasma, 1 mg/kg, intravenous, 1 mg/kg, read-out: Vz (volume of distribution)): 2.73 ± 2.45 L/kg
AUC [1, 5]: 5460 ± 1470 ng·h/mL
AUC(0-inf) [1, 5]: 5480 ± 1480 ng·h/mL
Cmax [1, 5]: 2720 ± 474 ng/mL
Tmax [1, 5]: 0.583 ± 0.382 h
AUC/D (dose-normalized AUC(0-inf)) ([1]; oral, 5 mg/kg): 1095 ± 295 kg·h/mL
AUC [2, 6]: 12600 ± 6000 ng·h/mL
AUC(0-inf) [2, 6]: 12600 ± 6000 ng·h/mL
clearance ([2]; male, rhesus, rhesus monkey, plasma, intravenous, 1 mg/kg, read-out: CL (systemic clearance)): 1.66 ± 1.06 mL/min/kg
Vd ([2]; male, rhesus, rhesus monkey, plasma, 1 mg/kg, intravenous, 1 mg/kg, read-out: Vss (volume of distribution at steady-state)): 0.353 ± 0.059 L/kg
Vd ([2]; male, rhesus, rhesus monkey, plasma, 1 mg/kg, intravenous, 1 mg/kg, read-out: Vz (volume of distribution)): 2.31 ± 1.71 L/kg
AUC [2, 7]: 42100 ± 17200 ng·h/mL
AUC(0-inf) [2, 7]: 42200 ± 17200 ng·h/mL
Cmax [2, 7]: 6040 ± 1880 ng/mL
Tmax [2, 7]: 2 h
AUC/D (dose-normalized AUC(0-inf)) ([2]; oral, 5 mg/kg): 8430 ± 3449 kg·h/mL
Dose excreted unchanged in urine ([3]; intravenous, 1 mg/kg): 0.248 ± 0.019%
AUC [3, 8]: 5380 ± 1190 ng·h/mL
AUC(0-inf) [3, 8]: 5400 ± 1160 ng·h/mL
clearance ([3]; male, Sprague-Dawley, plasma, intravenous, 1 mg/kg, read-out: CL (systemic clearance)): 3.19 ± 0.734 mL/min/kg
half-life [3, 8]: 2.86 ± 1.4 h
Vd ([3]; male, Sprague-Dawley, plasma, 1 mg/kg, intravenous, 1 mg/kg, read-out: Vss (volume of distribution at steady-state)): 0.368 ± 0.026 L/kg
Vd ([3]; male, Sprague-Dawley, plasma, 1 mg/kg, intravenous, 1 mg/kg, read-out: Vz (volume of distribution)): 0.757 ± 0.328 L/kg
AUC [3, 9]: 68500 ± 12500 ng·h/mL
AUC(0-inf) [3, 9]: 68600 ± 12500 ng·h/mL
Cmax [3, 9]: 28900 ± 2080 ng/mL
Tmax [3, 9]: 0.25 h
half-life [3, 9]: 2.72 ± 0.29 h
AUC/D (dose-normalized AUC(0-inf)) ([3]; oral, 10 mg/kg): 6859 ± 1249 kg·h/mL
